Test results from patent publication US20240382487A1, “NOVEL COPI/ARF1-LIPOLYSIS PATHWAY INHIBITOR AND COMPOUND FOR ERADICATING CANCER STEM CELLS AND INDUCING DAMP-MEDIATED ANTI-TUMOR IMMUNE RESPONSE” (FUDAN UNIVERSITY, priority 2020, published 2024).

Assays:
lung cancer cells H460 = assay: In vitro cell line screening, H460; assay type: cell-based
From the text: (§1) In different tumor cytotoxicity experiments in vitro (FIG. 2-FIG. 7), including colorectal cancer cell lines HT29 and LoVo cells, liver cancer cell Huh7, lung cancer cells H460 and A549, the arf1 inhibitor could all inhibit tumor cell growth (FIG. 2-FIG. 6), and there was a dose-dependent manner (FIG. 7).

[1] = system: colorectal cancer cell line HT29; assay: In vitro cell line screening, HT29; assay type: cell-based
From the text: as §1

liver cancer cell Huh7 = assay: In vitro cell line screening, Huh7; assay type: cell-based
From the text: as §1

lung cancer cells A549 = assay: In vitro cell line screening, A549; assay type: cell-based
From the text: as §1

[2] = system: colorectal cancer cell line LoVo; assay: In vitro cell line screening, LoVo; assay type: cell-based
From the text: as §1

[3] = system: liver tumors in MYC-ON mice; assay: MYC-ON liver tumor model; assay type: in vivo; settings: gavage, 5 per week for 4 weeks, analyzed 10 weeks later
From the text: We used the Tet system to generate transgenic mice conditionally expressing the myc pro-oncogene in hepatocytes, […] myc/lap TTA (lt2-myc) (shachaf et al., 2004). We crossed tre-myc mice with a transgenic line, lap TTA. in which the liver activator protein (LAP) promoter drives the expression of tetracycline trans-activator protein (TTA) in hepatocytes. We confirmed this by discontinuing the feeding of doxycycline (myc-ON) activated myc transgene expression in 3-week-old mice. Subsequently. all transgenic mice overexpressing myc succumbed to liver tumors with a mean latency to tumor onset of 12 weeks, as previously reported (shachaf et al., 2004). In this lap TTA/tet-off myc conditional transgenic mouse model, myc overexpression in adult mice reproducibly induces liver cancer, similar to hepatocellular carcinoma and/or hepatoblastoma. The transgenic tumor invades the entire liver locally and is frequently associated with malignant peritoneal effusions that spread to the thoracic cavity by metastasis and invade the lung parenchyma.
For the mouse liver tumor model, mating cages and weaning cages were administrated by a grain based rodent diet (Bio-Serv. Cat #14-727-450) containing 200 mg/kg doxycycline, and the mice were induced tumors at 6 weeks of age, by changing to a normal diet. Mice were divided into three groups, control, Du 101 treated and du102 treated. The control group was given 100 by gavage using a feeding tube 100 μl/10 g body weight (BW) 20% DMSO+80% corn oil. Du 101 treated groups were treated with 25 mg/ml Du 101. The stock solution was diluted 1:4 with corn oil to make the working solution. Dul02 treatment groups were treated with 25 mg/ml du102 stock solution diluted 1:4 with corn oil to make working solutions. The mixed working solution was administered to mice by gavage using a feeding tube. Starting from the second week of myc-0n, 5 injections per week ([…]) were given for 4 weeks, mice were monitored every 2 days, and 10 weeks later mice were euthanized and analyzed for tumor growth.
For the myc-on liver tumor model, antibodies were i.p. Mg/kg) was injected once a week for 5 consecutive weeks, the first Doxycycline was discontinued weekly after injection. Antibodies used to treat mice were as follows: anti-CD4 (clone GK1.5, BioXcell, Cat #BE0003-1), anti-CD8 a (clone 2.43, BioXcell, Cat #BE0061) Or […] rat IgG (bioxcell, cat #be0094) isotype control antibody. From the second week of myc-on initiation lasted for 4 weeks, Du 102 and DMSO were administered by gavage needle as described above, mice were monitored every 2 days, and 10 weeks later mice were euthanized and analyzed for tumor growth.
For the myc-on liver tumor model, antibodies were i.p. Injection once a week for 5 weeks, and doxycycline was discontinued weekly after the first injection. Antibodies used to treat mice were as follows: 100 ug/mouse Armenian hamster anti mouse PD1 (J43, bioxcell, cat #be0033-2) and 100 ug/mouse Armenian hamster isotype IgG (bioxcell. cat #bp0091) was used as controls. For 4 weeks from the second week of myc-on, Du 102 and DMSO were administered by gavage needle as described above, mice were monitored every 2 days. and 10 weeks later mice were euthanized and analyzed for tumor growth. Coadministration of anti-PD-1 antibodies may allow the use of lower, less toxic doses of du102, thus avoiding known side effects.

[4] = system: normal human bone marrow hematopoietic stem cells (HSCs); assay: Toxicity on normal hematopoietic stem cells
From the text: (§2) We tested 10 reported Arf1 inhibitors (Bill et al., 2011; Boal et al., 2010; Feng et al., 2004; Newton et al., 2006; Ohashi et al., 2012; Sáenz et al., 2009; Sorieul et al., 2011; Viaud et al., 2007), including brefeldin A (BFA), Golgicide A (GCA), LM11, Secin16, Secin H3, Secin B7, Exo1, Exo2, LG8, and LG18, on Drosophila stem cell tumors and normal human bone marrow hematopoietic stem cells (HSCs).

tumor cells = assay: Tumor cytotoxicity experiments in vitro (all lines, general statements); assay type: cell-based; settings: HT29, LoVo, Huh7, H460, A549; FIG. 2-7
From the text: as §1

mice = assay: Toxicity in mice, oral gavage; assay type: in vivo
[5] = system: Drosophila stem cell tumors; assay: Drosophila screen (stem cell / intestinal tumors); assay type: in vivo
From the text: as §2

Arf1 = target: T1, Arf1 (Homo sapiens, UniProt P84077); assay: Active Arf1 Pull-Down and Detection Kit (GTP-bound Arf1); assay type: biochemical; settings: liver cancer Huh-7 cell lysate; FIG. 1
T1 construct: Active Arf1 was detected by using The Thermo Scientific Pierce Active Arf1 Pull-Down and Detection Kit (Cat #16121) with liver cancer Huh-7 cell lysate; endogenous in cells; host or cells: Huh-7 liver cancer cells (lysate)
From the text: Active Arf1 was detected by using The Thermo Scientific Pierce Active Arf1 Pull-Down and Detection Kit (Cat #16121) with liver cancer Huh-7 cell lysate. It is a complete kit for selective enrichment and detection of GTP-bound Arf1 GTPase through specific protein interaction with the GGA3 protein-binding domain (FIG. 1).

T1 sequence (P84077 whole entry): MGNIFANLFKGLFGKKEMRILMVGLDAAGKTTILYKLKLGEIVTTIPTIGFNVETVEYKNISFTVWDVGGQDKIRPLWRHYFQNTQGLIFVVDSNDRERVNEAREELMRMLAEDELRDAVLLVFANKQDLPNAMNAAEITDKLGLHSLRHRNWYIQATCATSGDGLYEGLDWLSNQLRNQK

| SMILES | tumor suppressive effect (lung cancer cells H460) | tumor suppressive effect [1] | tumor suppressive effect (liver cancer cell Huh7) | tumor suppressive effect (lung cancer cells A549) | tumor suppressive effect [2] | liver tumor numbers [3] | toxicity (killing normal HSCs) [4] | tumor suppressive / inhibitory effect on tumor cells (tumor cells) | toxic effects (mice; oral gavage for 60 consecutive days, FIG. 10) | toxic effects (mice; up to 50 mg/kg by oral gavage for 21 consecutive days, FIG. 9) | in vivo tumor suppressive effects ([5]; Drosophila screen, FIG. 8) | killing Drosophila stem cell tumors ([5]; in vivo) | inhibition of arf1 activation (Arf1) |
| --- | --- | --- | --- | --- | --- | --- | --- | --- | --- | --- | --- | --- | --- |
| Cc1ccc(/C=C/Cc2cccc3c2C2=C(CCCC2)C3)cc1C [compound 104] | effective tumor suppressive effects | effective tumor suppressive effects | effective tumor suppressive effects | effective tumor suppressive effects | effective tumor suppressive effects | – | – | – | – | – | – | – | – |
| C(=C\c1ccccc1)/Cc1cccc2c1C1=C(CCCCCC1)C2 [compound 109] | effective tumor suppressive effects | effective tumor suppressive effects | effective tumor suppressive effects | effective tumor suppressive effects | effective tumor suppressive effects | – | – | – | – | – | – | – | – |
| C1=Cc2cc(/C=C/Cc3cccc4c3C3=C(CCCC3)C4)ccc2C1 [compound 107] | effective tumor suppressive effects | effective tumor suppressive effects | effective tumor suppressive effects | effective tumor suppressive effects | effective tumor suppressive effects | – | – | – | – | – | – | – | – |
| C(=N\Nc1ncnc2sc3c(c12)CCCC3)/c1ccc2[nH]ccc2c1 [Du 101] | – | – | – | – | – | 44.7 | relatively low toxicity | Some Tumor Suppressive Effect | induced toxic effects | no toxic effects were observed | good in vivo tumor suppressive effects | effective | potent inhibitors |
